In the NIST ThermoML archive (doi:10.1016/j.jct.2004.09.002):
± gives the expanded uncertainty stated by the source.

How the values were obtained:
[1] = refractive index (Na D-line) (dimensionless); details: 293.15 K; 101.33 kPa; Liquid; Standard Abbe refractometry
[2] = 293.15 K; 101.33 kPa; Liquid; Vibrating tube method
[3] = Boiling temperature at pressure P; details: 101.33 kPa; Liquid; Fischer boiling point apparatus

| Compound | refractive index [1] | mass density [2] | Boiling temperature at pressure P [3] |
| --- | --- | --- | --- |
| CCCC(=O)O [butanoic acid] | 1.3982 ± 0.0012 | 957.6 ± 0.5 kg/m3 |  |
| CC(=O)OC1CCCCC1 [cyclohexyl ethanoate] | 1.4434 ± 0.0013 | 970.3 ± 1 kg/m3 | 177.30 ± 0.2 °C |
| O [water] | 1.3324 ± 0.0012 |  | 100.1 ± 0.2 °C |
